Source: US8318504B2, “MRP2 efflux pathway prognostic method” (priority 2009, dated 2012)

Assays:
NTCP = target: T1, NTCP (Homo sapiens, UniProt Q14973); test: Inhibition by CLF of TC transport in CHO cells expressing NTCP; format: cell-based; details: 0, 5 or 50 μmol/L CLF, 2.5 μmol/L TC
T1 construct: the coding region ligated into pcDNA5/FRT; expressed in transfected cells
T1 sequence (Q14973 1-349): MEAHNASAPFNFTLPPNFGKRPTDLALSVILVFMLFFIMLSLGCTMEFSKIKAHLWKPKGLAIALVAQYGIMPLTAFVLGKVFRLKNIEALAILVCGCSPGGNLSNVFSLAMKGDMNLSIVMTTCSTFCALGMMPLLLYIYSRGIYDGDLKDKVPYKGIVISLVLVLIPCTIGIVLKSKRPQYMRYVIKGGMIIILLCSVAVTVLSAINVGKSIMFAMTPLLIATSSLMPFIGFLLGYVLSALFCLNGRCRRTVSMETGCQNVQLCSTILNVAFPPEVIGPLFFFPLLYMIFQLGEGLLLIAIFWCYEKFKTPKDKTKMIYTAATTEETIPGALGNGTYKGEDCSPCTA
Experimental: FIGS. 3A-3D relate to inhibition of transport activity of hepatocellular uptake transporters by CLF. CHO cells expressing NTCP, OATP1B1, OATP1B3 and OATP2B1 were incubated with 0, 5 or 50 μmol/L CLF and with the substrates, 2.5 μmol/L TC, 1 μmol/L estrone-3-sulfate, 10 μmol/L TC and 1 μmol/L estrone-3-sulfate, respectively. Data represent means±SD of triplicate determinations.
For all transport experiments, cells grown on 3 cm culture dishes were cultured for 24 hours in media supplemented with 5 mmol/L sodium-butyrate to increase expression levels of transfected transporters [Palermo D P et al., J Biotechnol 1991 June; 19(1):35-47]. • Transport experiments with uptake of radioactively labeled substrates: These experiments were performed as described by Huber R D et al. [Am J Physiol Cell Physiol 2007 February; 292(2):C795-C806]. • Transport experiments with uptake of CLF: Uptake was performed in the same buffers as for the radioactive substrates above. […] After complete solubilization, 1.5 ml was used to measure fluorescence in a Perkin-Elmer LS-5 luminescence-spectrometer set at λexe 486 nm (slit 10 nm) and λem 520 nm (slit 5 nm). Protein was determined with the bicinchoninic acid method using a kit from Interchim (Montfuçon, France). […]

wild type CHO cells = test: Effect of CLF on substrate uptake in wild type CHO cells; format: cell-based
Experimental: For all transport experiments, cells grown on 3 cm culture dishes were cultured for 24 hours in media supplemented with 5 mmol/L sodium-butyrate to increase expression levels of transfected transporters [Palermo D P et al., J Biotechnol 1991 June; 19(1):35-47]. • Transport experiments with uptake of radioactively labeled substrates: These experiments were performed as described by Huber R D et al. [Am J Physiol Cell Physiol 2007 February; 292(2):C795-C806]. • Transport experiments with uptake of CLF: Uptake was performed in the same buffers as for the radioactive substrates above. For visualization of CLF uptake, cells were immediately inspected with a Leica-DM-IRBE-inverted-microcope (Leica-Microsystems, Wetzlar, Germany) equipped with a Hamamatsu-ORKA-ER-camera (Hamamatsu-Photonoics, Japan). To determine uptake of CLF, cells were solubilized by the addition of 2 ml 1% (w/v) Triton-X-100. After complete solubilization, 1.5 ml was used to measure fluorescence in a Perkin-Elmer LS-5 luminescence-spectrometer set at λexe 486 nm (slit 10 nm) and λem 520 nm (slit 5 nm). Protein was determined with the bicinchoninic acid method using a kit from Interchim (Montfuçon, France). Transport data from OATP expressing cell lines were corrected for binding by subtracting 0 min time points (blank values) and except for FIGS. 2B and 2C were normalized per minute. […]

`CC(CCC(=O)NC(CCCCNC(=S)Nc1ccc(-c2c3ccc(=O)cc-3oc3cc(O)ccc23)c(C(=O)O)c1)C(=O)O)C1CCC2C3C(O)CC4CC(O)CCC4(C)C3CC(O)C12C` (centres unmarked) [CLF, cholyl lysyl fluorescein] was tested, and the “inhibition of transport of TC via NTCP by CLF” value (NTCP) was “very efficiently inhibited” and the “influence of CLF on substrate uptake in wild type cells” value (wild type CHO cells) was “no influence on substrate uptake”.
